Measured values reported in patent publication US8148431B2, “Osteogenesis promoter containing β-cryptoxanthin as the active ingredient” (Kemin Health, L.C., priority 2002, dated 2012).
Marks after values point to notes of the source that are not given here.

How the values were obtained:
[1] = tested on: rats, femoral diaphysis tissue; experiment: Oral administration to rats: bone calcium level in diaphysis tissue; type: in vivo, Wistar male rats; conditions: for Bone calcium level: diaphysis tissue
Experimental: Bone calcium level in the bone tissue was determined. After the culture in the incubator, the tissue pieces were washed with 0.25 M sucrose solution and dried and then the bone was weighed. Then concentrated nitric acid was added to the tissue pieces. After the incineration at 120° C. for 12 hours, the bone calcium level was determined with an atomic absorption photometer (“Perkin-Elmer 303” of Perkin-Elmer Co.).
(§1) A solution of β-cryptoxanthin in corn oil having one of three kinds of concentration (10, 25 and 50 μg/ml corn oil) was orally administered to rats (Wistar male rats; 4 to 5 weeks old) in an amount/100 g body weight with a probe once a day for 7 days. The rats were sacrificed 24 hours after the final administration. The femurs were excised. The muscles, etc. were taken out and each femur was divided into diaphysis and metaphysis to determine the bone components.
(§2) Tests were conducted to examine whether the bone components are increased by the oral administration of β-cryptoxanthin to rats or not. β-cryptoxanthin was administered for 7 days (10, 25 or 50 μg/100 g body weight/day) and then calcium level in the bone tissue, determination of alkaline phosphatase activity (enzyme for the acceleration of the calcification of bones) and the amount of deoxyribonucleic acid (DNA: index of the number of the cells in the bone tissue) were determined by the same methods as those in Example 1. In each test group, the determination was conducted 6 times and the results were represented by the average value and the standard error. The significant difference was determined by Student's t-test. The result was compared with that of the control. When P value was not higher than 0.01 (*) as compared with the control, the results were statistically significant.

[2] = tested on: diaphysis tissue of the femur (cortical bone); experiment: Bone DNA level in cultured femoral diaphysis tissue pieces; type: cell-based, Wistar male rats; conditions: for Bone DNA level: diaphysis tissue, mean ± SE
Experimental: The femurs were extracted from rats (Wistar male rats; 4 to 5 weeks old) (purchased from Japan SLC Co., Ltd. and fed with solid Oriental yeast (MF)) under anesthesia with ether under a germfree condition. The femurs were each washed with 0.25 M sucrose solution, and then divided into the diaphysis (cortical bone) and metaphysis (cancellous bone). The bone tissue pieces were cultured in a culture medium (Dulbecco's modified culture medium containing 5% of glucose; serum-free medium) containing. β-cryptoxanthin, etc. at […] in an incubator filled with 5% CO2-95% air for 48 hours. β-cryptoxanthin used was “β-cryptoxanthin” of Extrasynthase Co., cycloheximide used was “Cycloheximide” of Sigma Co. Ltd., β-carotene was “β-carotene” of Sigma ? , xanthine was “Xanthine” of Sigma Co, Ltd., parathormone was “Parathormone” of Sigma Co. Ltd. and prostaglandin E2 was “Prostaglandin E2” of Sigma Co. Ltd. In the control, only the culture medium was used without β-cryptoxanthin or the like.
(§3) DNA level was determined as an index of the number of cells in the bone tissue. After the culture in an incubator, the tissue pieces were washed with 0.25 M sucrose solution and then the wet weight of them was determined. They were pulverized in 4 ml of 0.1 N NaOH. After the osmosis at 4° C. for 24 hours, the liquid mixture was centrifuged. The supernatant was taken as the sample and determined by a method of Ceriotti et al. (J. Biol. Chem., 241; 34-77, 1951). Namely, 1 ml of concentrated hydrochloric acid and 1 ml of 0.04% indole solution were added to 2 ml of the sample and then the resultant mixture was heated to 100° C. in boiling water. After quenching followed by the extraction with 4 ml of chloroform, the chloroform layer was taken to determine bone DNA level with a spectrophotometer (490 nm).
The bone component-increasing effect of β-cryptoxanthin was examined. The diaphysis and metaphysis tissue of the femur was cultured in the above-described culture medium containing β-cryptoxanthin ([…]) for 48 hours. Calcium level in the bone tissue, alkaline phosphatase activity (enzyme for accelerating the bone calcification) and the amount of deoxyribonucleic acid (DNA; index of number of cells in the bone tissue) were determined by the same methods as in Example 1. In each test group, the determination vas conducted 6 to 8 times and the results were represented by the average value and the standard error. The significant difference was determined by Student's t-test. The result was compared with that of the control. When P value was not higher than 0.01 (**) or not higher than 0.05 (*), the results were statistically significant.

[3] = tested on: rats, femoral diaphysis tissue; experiment: Oral administration to rats: bone alkaline phosphatase activity in diaphysis tissue; type: in vivo, Wistar male rats; conditions: for Bone alkaline phosphatase activity: diaphysis tissue
Experimental: (§4) The expression level of alkaline phosphatase, which is the most important enzyme for the acceleration of the calcification of bones, was examined. The tissue pieces cultured in the incubator were washed in 0.25 M sucrose solution, then pulverized in 3 ml of 65 mM barbital buffer (pH 7-4) and treated with ultrasonic waves. The resultant liquid was centrifuged. The supernatant, as the enzyme solution, was determined by a method of Walter ad Schutt in Method of Enzymatic Analysis, Vol. 1-2, p. 856, Academic Press, New York, 1965). Namely, this method was carried out as follows: p-nitrophenylphosphoric acid was used as the substrate. 0.05 ml of the enzyme solution was added to 2 ml of diethanolamine buffer (pH 9.8). After the incubation at 37° C. for 30 minutes, 10 ml of 0.05 N NaOH was added to the mixture. The absorbance (405 nm) was determined with a spectrophotometer to determine bone alkaline phosphatase activity of a bone remedy or a compound known to be effective for the bones.
as §1, §2

[4] = tested on: rats, femoral diaphysis tissue; experiment: Oral administration to rats: bone DNA level in diaphysis tissue; type: in vivo, Wistar male rats; conditions: for Bone DNA level: diaphysis tissue
Experimental: as §3, §1, §2

[5] = tested on: rats, femoral metaphysis tissue; experiment: Oral administration to rats: bone alkaline phosphatase activity in metaphysis tissue; type: in vivo, Wistar male rats; conditions: for Bone alkaline phosphatase activity: metaphysis tissue
Experimental: as §4, §1, §2

[6] = 10, 25 or 50 μg/100 g body weight/day, 7 days
[7] = oral 10 μg/100 g body weight/day for 7 days
[8] = oral 25 μg/100 g body weight/day for 7 days
[9] = oral 50 μg/100 g body weight/day for 7 days

CC1=C(/C=C/C(C)=C/C=C/C(C)=C/C=C/C=C(C)/C=C/C=C(C)/C=C/C2=C(C)C[C@@H](O)CC2(C)C)C(C)(C)CCC1 [β-cryptoxanthin]
Effect on calcium level in the diaphysis tissue after oral administration (in words) [1, 6]: significantly increased | Bone calcium level [1, 7]: 232.8 ± 3.00* mg/g dry weight | Bone calcium level [1, 8]: 248.3 ± 5.10* mg/g dry weight | Bone calcium level [1, 9]: 247.5 ± 4.20* mg/g dry weight | Effect on DNA level in the diaphysis tissue (in words) ([2]; 10^−7 to 10^−5 M, 48 h culture, vs control): significantly increased | Bone DNA level ([2]; Table 2 (protein synthesis inhibitor experiment), 10^−6 M (each agent), n=6): 1.800 ± 0.025* mg/g bone wet weight | Bone DNA level ([2]; 10^−5 M, 48 h culture): 1.802 ± 0.063** mg/g bone wet weight | Bone DNA level ([2]; 10^−6 M, 48 h culture): 1.746 ± 0.016* mg/g bone wet weight | Bone DNA level ([2]; 10^−7 M, 48 h culture): 1.788 ± 0.049* mg/g bone wet weight | Bone DNA level ([2]; 10^−8 M, 48 h culture): 1.741 ± 0.099 mg/g bone wet weight | Bone DNA level in diaphysis tissue increased by β-cryptoxanthin: change in the presence of cycloheximide (in words) ([2]; β-cryptoxanthin 10^−6 M with cycloheximide): significantly lowered | Effect on alkali phosphatase activity in the diaphysis tissue after oral administration (in words) [3, 6]: significantly increased | Bone alkaline phosphatase activity [3, 7]: 2.38 ± 0.019* μmol/min/mg protein | Bone alkaline phosphatase activity [3, 8]: 2.35 ± 0.021* μmol/min/mg protein | Bone alkaline phosphatase activity [3, 9]: 1.85 ± 0.025* μmol/min/mg protein | Effect on DNA in the bone tissue, diaphysis, after oral administration (in words) ([4]; 25 or 50 μg/100 g body weight/day, 7 days): significantly increased | Bone DNA level [4, 7]: 1.95 ± 0.18 mg/g bone wet weight | Bone DNA level [4, 8]: 3.01 ± 0.23* mg/g bone wet weight | Bone DNA level [4, 9]: 2.53 ± 0.20* mg/g bone wet weight | Effect on alkali phosphatase activity in the metaphysis tissue after oral administration (in words) [5, 6]: significantly increased | Bone alkaline phosphatase activity [5, 7]: 2.21 ± 0.023* μmol/min/mg protein | Bone alkaline phosphatase activity [5, 8]: 2.545 ± 0.029* μmol/min/mg protein | Bone alkaline phosphatase activity [5, 9]: 1.92 ± 0.015* μmol/min/mg protein
